{
  "source": "patent US20260315604A1",
  "about": "“OTUB1 Small-Molecule Binders and OTUB1-recruiting Deubiquitinase-targeting Chimeras (DUBTACs)” (ICAHN SCHOOL OF MEDICINE AT MOUNT SINAI, priority 2023, published 2026)",
  "data": [
    {"biological_target": "T1, Human OTUB1 wild-type (Homo sapiens, UniProt Q96FW1)", "T1 construct": "His tag (N); made in house; host or cells: E. coli BL21-CodonPlus (DE3)-RIPIL", "assay": "Covalent modification of OTUB1 (adduct formation), mass spectrometry-based assay (OTUB1 covalent binders; selected CFTR or cGAS based bivalent compounds)", "type": "binding", "conditions": "covalent adduct formation with OTUB1 protein", "method": "OTUB1 covalent binders were tested for their ability to form the covalent adduct with OTUB1 protein using a mass-spectrometry based assay.\nExample 389. Assessment of the Covalent Modification of OTUB1 Protein by Selected OTUB1 Covalent Binders Using a Mass Spectrometry-Based Assay (FIG. 1)\nOTUB1 protein (10 μM) was incubated with selecting compounds (2500 μM) at RT for 1 h. The adduct was qualified by mass spectrometry-based assays.\nExample 398. Assessment of the Covalent Modification of OTUB1 Protein by Selected CFTR Based Bivalent Compounds Using Mass Spectrometry-Based Assay (FIG. 10)\nOTUB1 protein (10 μM) was incubated with selecting bivalent compounds (2500 μM) at RT for 1 h. The adduct was qualified by mass spectrometry-based assays.\nHuman OTUB1 wild-type (NM_017670.3) and C23S mutation genes were optimized based on the codon preference of E. coli, synthesized and cloned into pET15b vector with a N-terminal His tag by Genscript, respectively. The plasmid was transferred to BL21-CodonPlus (DE3)-RIPIL Competent Cell (230280, Agilent Technologies) and the recombinant protein was induced expressed by 0.5 mM IPTG at 16° C. with shaking 200 rpm for 18 h. Induced cells were harvested by centrifugation and resuspended in cold lysis buffer (50 mM Tris-H—Cl pH 7.5, 150 mM NaCl, 25 mM imidazole pH 7.5, 0.01% IGEPAL, 5% Glycerol) in the presence of Pierce Protease Inhibitor tablets (PIA32963, Fisher Scientific) and 2 mM TCEP pH 7.5.\nThe cells were lysed by sonication, clarified by centrifugation, and the filtered supernatant loaded onto a 5 ml HisTrap HP affinity column (17524802, Cytiva) in AKTA system. The His-recombinant protein bound to column was washed using buffer A (50 mM Tris-HCl pH 7.5, 150 mM NaCl, 25 mM imidazole pH 7.5, 0.01% IGEPAL, 5% Glycerol) and eluted with buffer B (50 mM Tris-HCl pH 7.5, 150 mM NaCl, 250 mM imidazole pH 7.5, 0.01% IGEPAL, 5% Glycerol). The eluted fractions containing OTUB1 protein were concentrated and subjected to size exclusion chromatography using a 320 mL HiLoad 26/600 Superdex 200 pg column (28989336, Cytiva) under the buffer condition ([…] Tris-HCl pH 7.5, 150 mM NaCl, and 2 mM TCEP pH 7.5). The eluted fractions containing OTUB1 protein were concentrated, divided into aliquots and stored at −80° C. freezer for further usage.\nQuality control of the OTUB1 proteins was performed by SDS-PAGE, Nanodrop and mass spectrometry.\nMass Spectrometry-Based Analysis of OTUB1-Covalent Ligand Adducts\nTo screen the covalent ligands, recombinant OTUB1 protein (10 μM) was respectively incubated with DMSO, EN523 or seven novel ligands (2500 μM) in reaction buffer (50 mM Tris-HCl pH 7.5, 150 mM NaCl, and 0.5 mM TCEP pH 7.5) for 1 h at room temperature.\nThen, the total 500 μL reaction solution was exchanged and concentrated to 50 μL 50 mM ammonium bicarbonate with a 10 kDa MWCO centrifugal filter unit (UFC901024, Millipore) and diluted in MS buffer (30% ACN, 0.2% FA) to a final concentration of […]. Mass spectrometry detection was performed by an Agilent LC/MSD Time-Of-Flight (TOF) mass spectrometer (Agilent Technologies) equipped with an electrospray ion source. The data was analyzed by TOF Protein Confirmation Software. All experiments were performed in duplicate.", "units": {"% of OTUB1 modified": "%"}, "values": [
      {"smiles": "Cc1ccc(N2CCC3(CC2)CN(C(=O)/C=C/CN(C)C)C3)s1", "note": "[XS185-101, (E)-4-(dimethylamino)-1-(7-(5-methylthiophen-2-yl)-2,7-diazaspiro[3.5]nonan-2-yl)but-2-en-1-one]", "% of OTUB1 modified": 23},
      {"smiles": "CN(C)C(C)(C)C#CC(=O)N1CC(C(=O)Nc2csc3ccccc23)C1", "note": "[XS224-119, N-(benzo[b]thiophen-3-yl)-1-(4-(dimethylamino)-4-methylpent-2-ynoyl)azetidine-3-carboxamide]", "% of OTUB1 modified": 60},
      {"smiles": "Cc1cnc(C(=O)N2CC3CC(C2)N3C(=O)/C=C/CN(C)C)o1", "note": "[XS209-92, (E)-4-(dimethylamino)-1-(3-(5-methyloxazole-2-carbonyl)-3,6-diazabicyclo[3.1.1]heptan-6-yl)but-2-en-1-one]", "% of OTUB1 modified": 15},
      {"smiles": "Cc1sccc1N1CCN(C(=O)/C=C/CN(C)C)CC1=O", "note": "[XS175-67, (E)-4-(4-(dimethylamino)but-2-enoyl)-1-(2-methylthiophen-3-yl)piperazin-2-one]", "% of OTUB1 modified": 60},
      {"smiles": "Cc1cccc(N2CCN(C(=O)/C=C/CN(C)C)CC2=O)c1", "note": "[XS165-99, (E)-4-(4-(dimethylamino)but-2-enoyl)-1-(n-tolyl)piperazin-2-one]", "% of OTUB1 modified": 38},
      {"smiles": "CC(C)c1ccc(NC(=O)C2CCN(C(=O)CCl)CC2)s1", "note": "[XS185-6, 1-(2-chloroacetyl)-N-(5-isopropylthiophen-2-yl)piperidine-4-carboxamide]", "% of OTUB1 modified": 100},
      {"smiles": "Cc1ccc(NC(=O)C2(O)CN(C(=O)/C=C/CN(C)C)C2)s1", "note": "[XS209-22, (E)-1-(4-(dimethylamino)but-2-enoyl)-3-hydroxy-N-(5-methylthiophen-2-yl)azetidine-3-carboxamide]", "% of OTUB1 modified": 47},
      {"smiles": "CN(C)C/C=C/C(=O)N1C2CCC1C(=O)N(c1ccc(-c3ccccc3)s1)C2", "note": "(stereo not drawn) [XS190-45, (E)-8-(4-(dimethylamino)but-2-enoyl)-3-(5-phenylthiophen-2-yl)-3,8-diazabicyclo[3.2.1]octan-2-one]", "% of OTUB1 modified": 90},
      {"smiles": "Cc1ccc(NC(=O)C2(O)CN(C(=O)C#CC(C)(C)N(C)C)C2)s1", "note": "[XS209-100, 1-(4-(dimethylamino)-4-methylpent-2-ynoyl)-3-hydroxy-N-(5-methylthiophen-2-yl)azetidine-3-carboxamide]", "% of OTUB1 modified": 25},
      {"smiles": "Cc1ccc(C(=O)N2CC3(CN(C(=O)/C=C/CN(C)C)C3)C2)s1", "note": "[XS185-69, (E)-4-(dimethylamino)-1-(6-(5-methylthiophene-2-carbonyl)-2,6-diazaspiro[3.3]heptan-2-yl)but-2-en-1-one]", "% of OTUB1 modified": 30},
      {"smiles": "Cc1ccc(N2CCN(C(=O)/C(C#N)=C/C(C)(C)C)CC2=O)s1", "note": "[XS165-177, (E)-4,4-dimethyl-2-(4-(5-methylthiophen-2-yl)-3-oxopiperazine-1-carbonyl)pent-2-enenitrile]", "% of OTUB1 modified": 10},
      {"smiles": "Cc1cnc(NC(=O)C2(C)CN(C(=O)/C=C/CN(C)C)C2)s1", "note": "[XS209-38, (E)-1-(4-(dimethylamino)but-2-enoyl)-3-methyl-N-(5-methylthiazol-2-yl)azetidine-3-carboxamide]", "% of OTUB1 modified": 20},
      {"smiles": "CN(C)C/C=C/C(=O)N1CCN(c2csc3ccccc23)C(=O)C1", "note": "[XS185-86, (E)-1-(benzo[b]thiophen-3-yl)-4-(4-(dimethylamino)but-2-enoyl)piperazin-2-one]", "% of OTUB1 modified": 80},
      {"smiles": "CN(C)C/C=C/C(=O)N1C2CC1CN(C(=O)C1CN(C)C1)C2", "note": "[XS197-85, (E)-4-(dimethylamino)-1-(3-(1-methylazetidine-3-carbonyl)-3,6-diazabicyclo[3.1.1]heptan-6-yl)but-2-en-1-one]", "% of OTUB1 modified": 45},
      {"smiles": "CN(C)C/C=C/C(=O)N1CC(C(=O)NC2CCCC2)C1", "note": "[XS185-131, (E)-N-cyclopentyl-1-(4-(dimethylamino)but-2-enoyl)azetidine-3-carboxamide]", "% of OTUB1 modified": 18},
      {"smiles": "CN(C)C(C)(C)C#CC(=O)N1CC(NC(=O)c2cc3ccccc3s2)C1", "note": "[XS224-156, N-(1-(4-(dimethylamino)-4-methylpent-2-ynoyl)azetidin-3-yl)benzo[b]thiophene-2-carboxamide]", "% of OTUB1 modified": 85},
      {"smiles": "CN(C)C/C=C/C(=O)N1CCN(c2cc3ccccc3[nH]2)C(=O)C1", "note": "[XS185-116, (E)-4-(4-(dimethylamino)but-2-enoyl)-1-(1H-indol-2-yl)piperazin-2-one]", "% of OTUB1 modified": 55},
      {"smiles": "Cc1ccc(N2CC3CCC(C2=O)N3C(=O)C#CCN(C)C)s1", "note": "(stereo not drawn) [XS197-185, 8-(4-(dimethylamino)but-2-ynoyl)-3-(5-methylthiophen-2-yl)-3,8-diazabicyclo[3.2.1]octan-2-one]", "% of OTUB1 modified": 95},
      {"smiles": "Cc1ccc(C(=O)N2C[C@@H]3C[C@H]2CN3C(=O)/C=C/CN(C)C)s1", "note": "[XS190-80, (E)-4-(dimethylamino)-1-((1S,4S)-5-(5-methylthiophene-2-carbonyl)-2,5-diazabicyclo[2.2.1]heptan-2-yl)but-2-en-1-one]", "% of OTUB1 modified": 7},
      {"smiles": "CCCC(=O)N1CC2CC(C1)N2C(=O)C#CCN(C)C", "note": "[XS209-166, 1-(3-butyryl-3,6-diazabicyclo[3.1.1]heptan-6-yl)-4-(dimethylamino)but-2-yn-1-one]", "% of OTUB1 modified": 90},
      {"smiles": "CN(C)C/C=C/C(=O)N1CC2(CC(C(=O)Nc3cc4c(s3)CCCC4)C2)C1", "note": "[XS185-114, (E)-2-(4-(dimethylamino)but-2-enoyl)-N-(4,5,6,7-tetrahydrobenzo[b]thiophen-2-yl)-2-azaspiro[3.3]heptane-6-carboxamide]", "% of OTUB1 modified": 18},
      {"smiles": "CC(=O)N1CC2CC(C1)N2C(=O)/C=C/CN(C)C", "note": "[XS190-186, (E)-1-(3-acetyl-3,6-diazabicyclo[3.1.1]heptan-6-yl)-4-(dimethylamino)but-2-en-1-one]", "% of OTUB1 modified": 70},
      {"smiles": "Cc1ccc(NC(=O)C2CN(C(=O)CCl)C2)s1", "note": "[XS175-126, 1-(2-chloroacetyl)-N-(5-methylthiophen-2-yl)azetidine-3-carboxamide]", "% of OTUB1 modified": 100},
      {"smiles": "C=CC(=O)N1CCN(c2ccc(C)s2)C(=O)C1", "note": "[XS154-91, 4-acryloyl-1-(5-methylthiophen-2-yl)piperazin-2-one]", "% of OTUB1 modified": 52},
      {"smiles": "CC(C)c1ccc(NC(=O)C2CN(C(=O)/C=C/CN(C)C)C2)s1", "note": "[XS175-143, (E)-1-(4-(dimethylamino)but-2-enoyl)-N-(5-isopropylthiophen-2-yl)azetidine-3-carboxamide]", "% of OTUB1 modified": 45},
      {"smiles": "CN(C)C/C=C/C(=O)N1C2CC1CN(C(=O)c1ccc(C3CCN(C)C3)s1)C2", "note": "(stereo not drawn) [XS197-73, (E)-4-(dimethylamino)-1-(3-(5-(1-methylpyrrolidin-3-yl)thiophene-2-carbonyl)-3,6-diazabicyclo[3.1.1]heptan-6-yl)but-2-en-1-one]", "% of OTUB1 modified": 90},
      {"smiles": "Cc1ccc(N2CCCN(C(=O)/C=C/CN(C)C)CC2=O)s1", "note": "[XS175-120, (E)-4-(4-(dimethylamino)but-2-enoyl)-1-(5-methylthiophen-2-yl)-1,4-diazepan-2-one]", "% of OTUB1 modified": 47},
      {"smiles": "Cc1cc(N2CCN(C(=O)/C=C/CN(C)C)CC2=O)sc1C", "note": "[XS175-70, (E)-4-(4-(dimethylamino)but-2-enoyl)-1-(4,5-dimethylthiophen-2-yl)piperazin-2-one]", "% of OTUB1 modified": 90},
      {"smiles": "CN(C)CC#CC(=O)N1CC(NC(=O)c2cc3ccccc3s2)C1", "note": "[XS224-155, A-(1-(4-(dimethylamino)but-2-ynoyl)azetidin-3-yl)benzo[b]thiophene-2-carboxamide]", "% of OTUB1 modified": 97},
      {"smiles": "Cc1ccc(C(=O)N2CC3CC(C2)N3C(=O)C#CC(C)(C)N(C)C)s1", "note": "[XS209-75, 4-(dimethylamino)-4-methyl-1-(3-(5-methylthiophene-2-carbonyl)-3,6-diazabicyclo[3.1.1]heptan-6-yl)pent-2-yn-1-one]", "% of OTUB1 modified": 75}
    ]}
  ]
}
